The results in this text go back to patent US9790169B2, “IDO inhibitors” (BRISTOL-MYERS SQUIBB COMPANY, priority 2015, dated 2017).

For this test, the target named is human IDO1 (Homo sapiens, UniProt P14902). Briefly: Assessment of human IDO-1 inhibitory activity in HEK cells (human IDO1/HEK293 cells, kynurenine read-out with Ehrlich reagent, absorbance 490 nm). The format is cell-based. Details: expressed in transfected cells. As to conditions: HEK Human IDO-1 cellular assay. The gist of the method:
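Kynurenine output from stably IDO1-transfected HEK293 cells (10,000/well, phenol red-free RPMI, 10% FBS) after 20 h compound exposure at 37 °C. The reaction was stopped with 0.2% TCA and heated 30 min at 50 °C, then the supernatant was mixed with Ehrlich reagent and read at 490 nm. IC50 was set against DMSO and a 500 nM reference standard as 0 and 100% inhibition.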

Chain of human IDO1 (P14902 whole entry): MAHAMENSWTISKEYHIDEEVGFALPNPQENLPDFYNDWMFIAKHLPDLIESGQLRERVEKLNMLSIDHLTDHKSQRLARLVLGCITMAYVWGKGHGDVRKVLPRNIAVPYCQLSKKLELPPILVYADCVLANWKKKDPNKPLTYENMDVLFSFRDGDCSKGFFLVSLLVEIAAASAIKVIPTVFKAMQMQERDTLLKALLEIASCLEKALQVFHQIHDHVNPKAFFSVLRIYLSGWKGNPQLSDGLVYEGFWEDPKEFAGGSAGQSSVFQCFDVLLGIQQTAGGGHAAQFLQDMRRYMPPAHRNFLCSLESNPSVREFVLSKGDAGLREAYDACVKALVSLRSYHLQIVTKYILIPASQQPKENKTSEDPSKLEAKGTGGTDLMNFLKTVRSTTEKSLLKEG

On to `CCC(CC(=O)O)c1ccc(N(CC)C2CCCOC2)c(Nc2ccc(C#N)cc2)c1` (single isomer, unassigned) [Example 70, 3-(3-((4-cyanophenyl)amino)-4-(ethyl(tetrahydro-2H-pyran-3-yl)amino)phenyl)pentanoic acid], for which the IC50 – broadly, the point on the concentration scale where inhibition reaches its midpoint – was below 5 nM.
With `CCC(CC(=O)O)c1ccc(N(CC)C2CCCOC2)c(Nc2cnc(OC)nc2)c1` (single isomer, unassigned) [Example 71, 3-(4-(ethyl(tetrahydro-2H-pyran-3-yl)amino)-3-((2-methoxypyrimidin-5-yl)amino)phenyl)pentanoic acid], the IC50 is below 50 nM.
Regarding `CCC(CC(=O)O)c1ccc(N(CC)C2CCCOC2)c(NC(=O)Nc2ccc(C)cc2)c1` (single isomer, unassigned) [Example 73 D1, 3-(4-(Ethyl(tetrahydro-2H-pyran-3-yl)amino)-3-(3-(p-tolyl)ureido)phenyl)pentanoic acid], the half-maximal inhibitory concentration (IC50) was below 5 nM.
Take `CCC(CC(=O)O)c1ccc(N(CC)C2CCCOC2)c(NC(=O)Nc2ccc(C)cc2)c1` (single isomer, unassigned) [Example 73 D2, 3-(4-(Ethyl(tetrahydro-2H-pyran-3-yl)amino)-3-(3-(p-tolyl)ureido)phenyl)pentanoic acid]: the IC50 was below 5 nM.
Then `CCC(CC(=O)O)c1ccc(N(CC)C2CCCOC2)c(NC(=O)Nc2ccc(C)cc2)c1` (single isomer, unassigned) [Example 73 D3, 3-(4-(Ethyl(tetrahydro-2H-pyran-3-yl)amino)-3-(3-(p-tolyl)ureido)phenyl)pentanoic acid], with below 50 nM; and `CCC(CC(=O)O)c1ccc(N(CC)C2CCCOC2)c(NC(=O)Nc2ccc(C)cc2)c1` (single isomer, unassigned) [Example 73 D4, 3-(4-(Ethyl(tetrahydro-2H-pyran-3-yl)amino)-3-(3-(p-tolyl)ureido)phenyl)pentanoic acid], with below 5 nM.
Then `CC[C@@H](CC(=O)O)c1ccc(N2CCOC[C@@H]2C(C)C)c(NC(=O)Nc2ccc(C)cc2)c1` (single isomer, unassigned) [Example 74], with above 50 nM; and `CC[C@@H](CC(=O)O)c1ccc(N2CCOC[C@@H]2C(C)C)c(NC(=O)Nc2ccc(Cl)cc2F)c1` (single isomer, unassigned) [Example 75], with below 50 nM.
`CC[C@@H](CC(=O)O)c1ccc(N2CCOC[C@@H]2C(C)C)c(NC(=O)Nc2ccc(OC)cc2F)c1` (single isomer, unassigned) [Example 76]: the 50% inhibitory concentration (IC50) was above 50 nM.
To `CC[C@@H](CC(=O)O)c1ccc(N2CCOC[C@@H]2C(C)C)c(NC(=O)Nc2cc(C)on2)c1` (single isomer, unassigned) [Example 77] belongs above 50 nM; to `CC[C@@H](CC(=O)O)c1ccc(N2CCOC[C@@H]2C(C)C)c(Nc2ccc(Cl)cc2)c1` (single isomer, unassigned) [Example 78], below 50 nM; to `CCOc1ncc(Nc2cc([C@@H](CC)CC(=O)O)ccc2N2CCOC[C@@H]2C(C)C)cn1` (single isomer, unassigned) [Example 79], above 50 nM.
Regarding `CC[C@@H](CC(=O)O)c1ccc(N2CCOC[C@@H]2C(C)C)c(Nc2ccc3nc(C)sc3c2)c1` (single isomer, unassigned) [Example 80], the half-maximal inhibitory concentration (IC50) was above 50 nM.
With `CC[C@@H](CC(=O)O)c1ccc(N2CCOC[C@@H]2C(C)C)c(Nc2ccc3c(c2)OC(F)(F)O3)c1` (single isomer, unassigned) [Example 81], the IC50 was below 50 nM.
Take `CCOc1ccc(Nc2cc([C@@H](CC)CC(=O)O)ccc2N2CCOC[C@@H]2C(C)C)cc1` (single isomer, unassigned) [Example 82]: the IC50 is below 50 nM.
On to `CC[C@@H](CC(=O)O)c1ccc(N2CCOC[C@@H]2C(C)C)c(Nc2ccc(C#N)cc2)c1` (single isomer, unassigned) [Example 83], for which the IC50 was below 50 nM.
In the case of `CC[C@@H](CC(=O)O)c1ccc(N2CCOC[C@@H]2C(C)C)c(Nc2ccc(F)cc2)c1` (single isomer, unassigned) [Example 84], the IC50 was below 50 nM.
For `CC[C@H](CC(=O)O)c1ccc(N2CCOC[C@@H]2C(C)C)c(NC(=O)Nc2ccc(C)cc2)c1` (single isomer, unassigned) [Example 85], the IC50 was above 50 nM.
In the case of `CC[C@H](CC(=O)O)c1ccc(N2CCOC[C@@H]2C(C)C)c(NC(=O)Nc2ccc(Cl)cc2F)c1` (single isomer, unassigned) [Example 86], the concentration for half-maximal inhibition (IC50) is below 50 nM.
Take `CC[C@H](CC(=O)O)c1ccc(N2CCOC[C@@H]2C(C)C)c(NC(=O)Nc2ccc(OC)cc2F)c1` (single isomer, unassigned) [Example 87]: the concentration for half-maximal inhibition (IC50) is above 50 nM.
On to `CC[C@H](CC(=O)O)c1ccc(N2CCOC[C@@H]2C(C)C)c(NC(=O)Nc2cc(C)on2)c1` (single isomer, unassigned) [Example 88], for which the IC50 was above 50 nM.
For the compound `CC[C@H](CC(=O)O)c1ccc(N2CCOC[C@@H]2C(C)C)c(Nc2ccc(Cl)cc2)c1` (single isomer, unassigned) [Example 89], the concentration for half-maximal inhibition (IC50) was below 5 nM.
Consider `CCc1ccc(Nc2cc([C@H](CC)CC(=O)O)ccc2N2CCOC[C@@H]2C(C)C)cc1` (single isomer, unassigned) [Example 91], for which the half-inhibitory concentration (IC50) is below 50 nM.
For the compound `CC[C@H](CC(=O)O)c1ccc(N2CCOC[C@@H]2C(C)C)c(Nc2ccc(C#N)cc2)c1` (single isomer, unassigned) [Example 92], the IC50 was below 5 nM.
Regarding `CC[C@H](CC(=O)O)c1ccc(N2CCOC[C@@H]2C(C)C)c(Nc2ccc3c(c2)OC(F)(F)O3)c1` (single isomer, unassigned) [Example 93], the IC50 is below 50 nM.
With `CCOc1ncc(Nc2cc([C@H](CC)CC(=O)O)ccc2N2CCOC[C@@H]2C(C)C)cn1` (single isomer, unassigned) [Example 94], the half-inhibitory concentration (IC50) is below 50 nM.
To `CCC(CC(=O)O)c1cc(F)c(N(CC(C)C)CC(C)C)c(Nc2ccc3nc(C)sc3c2)c1` (single isomer, unassigned) [Example 95, 3-(4-(Diisobutylamino)-3-fluoro-5-((2-methylbenzo[d]thiazol-6-yl)amino)phenyl)pentanoic acid] belongs above 50 nM; to `CCc1ccc(Nc2cc(C(CC)CC(=O)O)cc(F)c2N(CC(C)C)CC(C)C)cc1` (single isomer, unassigned) [Example 96, 3-(4-(diisobutylamino)-3-((4-ethylphenyl)amino)-5-fluorophenyl)pentanoic acid], below 50 nM; to `CCOc1ccc(Nc2cc(C(CC)CC(=O)O)cc(F)c2N(CC(C)C)CC(C)C)cc1` (single isomer, unassigned) [Example 97, 3-(4-(diisobutylamino)-3-((4-ethoxyphenyl)amino)-5-fluorophenyl)pentanoic acid], below 50 nM.
In the case of `CCC(CC(=O)O)c1cc(F)c(N(CC(C)C)CC(C)C)c(Nc2ccc(OCC(F)(F)F)cc2)c1` (single isomer, unassigned) [Example 98, 3-(4-(diisobutylamino)-3-fluoro-5-((4-(2,2,2-trifluoroethoxy)phenyl)amino)phenyl)pentanoic acid], the concentration for half-maximal inhibition (IC50) is above 50 nM.
Then `CCC(CC(=O)O)c1cc(F)c(N(CC(C)C)CC(C)C)c(Nc2ccc(Cl)cc2)c1` (single isomer, unassigned) [Example 99, 3-(3-((4-chlorophenyl)amino)-4-(diisobutylamino)-5-fluorophenyl)pentanoic acid], with below 5 nM; and `CCC(CC(=O)O)c1cc(F)c(N(CC(C)C)CC(C)C)c(Nc2ccc(F)cc2)c1` (single isomer, unassigned) [Example 100, 3-(4-(diisobutylamino)-3-fluoro-5-((4-fluorophenyl)amino)phenyl)pentanoic acid], with below 5 nM.
With `CCC(CC(=O)O)c1cc(F)c(N(CC(C)C)CC(C)C)c(Nc2ccc3c(c2)OC(F)(F)O3)c1` (single isomer, unassigned) [Example 101, 3-(3-((2,2-difluorobenzo [d][1,3]dioxol-5-yl)amino)-4-(diisobutylamino)-5-fluorophenyl)pentanoic acid], the 50% inhibitory concentration (IC50) was below 5 nM.
Take `CCC(CC(=O)O)c1cc(F)c(N(CC(C)C)CC(C)C)c(Nc2ccc(Cl)c(OCC(F)(F)F)c2)c1` (single isomer, unassigned) [Example 102, 3-(3-((4-chloro-3-(2,2,2-trifluoroethoxy)phenyl)amino)-4-(diisobutylamino)-5-fluorophenyl)pentanoic acid]: the IC50 was below 5 nM.
Consider `CCOc1ncc(Nc2cc(C(CC)CC(=O)O)cc(F)c2N(CC(C)C)CC(C)C)cn1` (single isomer, unassigned) [Example 103, 3-(4-(diisobutylamino)-3-((2-ethoxypyrimidin-5-yl)amino)-5-fluorophenyl)pentanoic acid], for which the concentration for half-maximal inhibition (IC50) is below 5 nM.
As for `CCC(CC(=O)O)c1cc(F)c(N(CC(C)C)CC(C)C)c(Nc2cnc(OC)nc2)c1` (single isomer, unassigned) [Example 104, 3-(4-(diisobutylamino)-3-fluoro-5-((2-methoxypyrimidin-5-yl)amino)phenyl) pentanoic acid], the half-inhibitory concentration (IC50) is below 5 nM.
With `CCC(CC(=O)O)c1cc(F)c(N(CC(C)C)CC(C)C)c(Nc2ccnc(N3CCOCC3)n2)c1` (single isomer, unassigned) [Example 105, 3-(4-(diisobutylamino)-3-fluoro-5-((2-morpholinopyrimidin-4-yl)amino)phenyl) pentanoic acid], the IC50 is above 50 nM.
Take `CCC(CC(=O)O)c1cc(F)c(N(CC(C)C)CC(C)C)c(Nc2ccc(OCC3CC3)cc2)c1` (single isomer, unassigned) [Example 106, 3-(3-((4-(cyclopropylmethoxy)phenyl)amino)-4-(diisobutylamino)-5-fluorophenyl)pentanoic acid]: the half-maximal inhibitory concentration (IC50) is below 50 nM.
Consider `CCC(CC(=O)O)c1cc(F)c(N(CC(C)C)CC(C)C)c(Nc2ccc(C#N)cc2)c1` (single isomer, unassigned) [Example 107, 3-(3-((4-cyanophenyl)amino)-4-(diisobutylamino)-5-fluorophenyl)pentanoic acid], for which the IC50 was below 5 nM.
